{"source": "patent US20240293430A1", "about": "“WITHAFERIN A AND IMMUNE CHECKPOINT BLOCKER COMBINATION THERAPIES” (University of South Florida, priority 2023, published 2024)", "key": {"[1]": {"test_system": "WFA-mediated PD-L1 and ecto-CRT increase in NSCLC cell lines", "test": "ROS scavenger added to WFA, PD-L1 and ecto-CRT, NSCLC", "format": "cell-based, mouse (LLC), human (H1650, A549)", "details": "24 h; for effect on WFA-mediated PD-L1 increase: WFA + 5 mM scavenger, flow cytometry and qRT-PCR (NAC), flow cytometry (GSH)", "experimental": "NSCLC cell lines were treated with WFA (0.6 μM in LLC, H1650 cells, 4 μM in A549 cells), or a combination of WFA+5 mM NAC for 24 h. (FIGS. 4A, 4D, 4G) The change in ROS levels were measured in LLC (FIG. 4A), H1650 (FIG. 4D), and A549 (FIG. G). (FIGS. 4B, 4E, 4H) by flow cytometry. The change in PD-L1 levels was measured in LLC (FIG. 4B), H1650 (FIG. 4E), and A549 (FIG. 4H) cell lines using flow cytometry and qRT-PCR. (FIG. 4C, 4F, 4I) Ecto-CRT levels were measured in LLC (FIG. 4C), H1650 (FIG. 4F), and A549 (FIG. 41) by flow cytometry. Means of two independent experiments ±SEM are shown, except for the PCR experiments that were repeated twice and for which one representative experiment is shown. Statistical significance was calculated using one-way ANOVA and a Fisher LSD post hoc test where * is p<0.05, ** is p<0.01,*** is p<0.001, and **** is p<0.0001.\nAll cells were treated with 0.6 μM WFA except A549, 4t1 and MDA-MB-231 cells which were treated with 4 μM, 1 μM, 2 μM WFA, respectively. […] PCR experiments were repeated twice, and one representative experiment is shown as mean±SEM of 3 technical replicates. Flow cytometry experiments were performed twice and the mean±SEM of two representative experiments is shown. Treatments were compared to the control using one-way ANOVA and Fisher LSD post hoc test. * p<0.05, ** p<0.01, *** p<0.001, **** p<0.0001.\nTo test our hypothesis, we treated NSCLC cell lines with WFA, NAC, or a combination of both."}, "[2]": {"test_system": "WFA-induced PD-L1 upregulation in NSCLC cells", "test": "Pharmacologic inhibitors added to WFA, PD-L1 by flow cytometry", "format": "cell-based, mouse (LLC), human (H1650, A549)"}, "[3]": {"test_system": "PD-L1 upregulation in MC-38, HCT-116, 4T-1, and MDA-MB-231 cell lines", "test": "PD-L1 with WFA and NAC in colorectal and breast cancer cell lines", "format": "cell-based, mouse (MC-38, 4T1), human (HCT-116", "details": "5 mM NAC; MC-38, HCT-116, 4T-1, MDA-MB-231"}, "[4]": {"test_system": "ROS levels in NSCLC cell lines", "test": "ROS levels with ROS indicator CM-H2DCFDA", "format": "cell-based, mouse (LLC), human (H1650", "details": "24 h; WFA 0.6 μM (LLC, H1650), 4 μM (A549); NAC 5 mM"}}, "note": "Like-named read-outs stand apart in the source and are kept apart here."}
{"compound": "N[C@@H](CCC(=O)N[C@@H](CS)C(=O)NCC(=O)O)C(=O)O", "note": "[Glutathione, L-Glutathione]", "values": [{"measurement": "effect on WFA-mediated PD-L1 increase", "setting": "[1]", "value": "abrogated"}]}
{"compound": "O=[N+]([O-])c1ccc2c(c1)S(=O)(=O)C=C2", "note": "[STATTIC]", "values": [{"measurement": "effect on WFA-induced PD-L1 upregulation", "setting": "[2]; WFA + inhibitor, 24 h, STATTIC: LLC, H1650, PX-478: LLC, brusatol: LLC, H1650, A549", "value": "neither STATTIC nor PX-478 were able to reverse"}]}
{"compound": "CC(=O)N[C@@H](CS)C(=O)O", "note": "[NAC, N-acetyl cysteine, reference compound]", "values": [{"measurement": "effect on WFA-induced ecto-CRT expression", "setting": "[1]; WFA + 5 mM NAC", "value": "completely reversed"}, {"measurement": "effect on WFA-mediated PD-L1 increase", "setting": "[1]", "value": "completely reversed"}, {"measurement": "effect on WFA-mediated PD-L1 upregulation", "setting": "[3]", "value": "completely reversed"}, {"measurement": "ROS levels", "setting": "[4]", "value": "reduced"}]}
{"compound": "Brusatol", "values": [{"measurement": "effect on WFA-induced PD-L1 upregulation", "setting": "[2]", "value": "completely abrogated"}]}
